# Reference: the supplement of paper PMC11061612
# Legend:
# Test in all cases: combination Emax (second highest fraction inhibited in the dose matrix, 72 h); higher = more inhibition; extreme values may be limits of the assay
# [1] = test system: GCT (Other Solid Carcinomas)
# In short: (§1)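 Cell lines grown in DMEM/F12 or RPMI with 10% FBS were plated in 1536-well plates and held 24 hours at 37°C, 5% CO2 before 72 hours of exposure to two-drug dose matrices, with DMSO typically at 0.2%. CellTiter-Glo 2.0 luminescence gave viability, which was converted to inhibition. Vehicle wells were set to 0 and blank wells to 1. Combination Emax is the second-highest inhibition in the matrix, and Bliss excess is the observed combination effect minus the expected EA + EB − EA·EB, where EA and EB are the single-agent effects.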
# [2] = test system: ESO26 (Esophageal Adenocarcinoma)
# In short: as §1
# [3] = test system: GA-10 (Burkitt's Lymphoma)
# In short: as §1
# COLO-792 (Melanoma) = test system: COLO-792 (Melanoma)
# In short: as §1
# A204 (Rhabdomyosarcoma) = test system: A204 (Rhabdomyosarcoma)
# In short: as §1
# [4] = test system: NCI-H716 (Colorectal Carcinoma)
# In short: as §1
# [5] = test system: EPLC-272H (Other Solid Carcinomas)
# In short: as §1
# [6] = test system: CAL-27 (Oral Cavity Carcinoma)
# In short: as §1
# [7] = test system: DMS-53 (Small Cell Lung Carcinoma)
# In short: as §1
# [8] = test system: KYSE-140 (Esophageal Squamous Cell Carcinoma)
# In short: as §1
# [9] = test system: NCI-H2228 (Lung Adenocarcinoma)
# In short: as §1
# [10] = test system: UACC-812 (Breast Carcinoma)
# In short: as §1
# [11] = test system: HCC1428 (Breast Carcinoma)
# In short: as §1
# [12] = test system: JIMT-1 (Breast Carcinoma)
# In short: as §1
# [13] = test system: JVM-2 (B-Cell Non-Hodgkin's Lymphoma)
# In short: as §1
# AU565 (Breast Carcinoma) = test system: AU565 (Breast Carcinoma)
# In short: as §1
# RH-41 (Rhabdomyosarcoma) = test system: RH-41 (Rhabdomyosarcoma)
# In short: as §1
# NB13 (Neuroblastoma) = test system: NB13 (Neuroblastoma)
# In short: as §1
# A101D (Melanoma) = test system: A101D (Melanoma)
# In short: as §1
# [14] = test system: TE-10 (Esophageal Squamous Cell Carcinoma)
# In short: as §1
smiles,measurement,setting,value
"C[C@@H](c1ccc2nccn2c1)n1nnc2ncc(-c3cnn(C)c3)nc21 [Savolitinib] + CC1(C)CCC(CN2CCN(c3ccc(C(=O)NS(=O)(=O)c4ccc(NCC5CCOCC5)c([N+](=O)[O-])c4)c(Oc4cnc5[nH]ccc5c4)c3)CC2)=C(c2ccc(Cl)cc2)C1 [Venetoclax] (first compound max 1 µM, 7x7, partner max 1 µM)",combination Emax,[1],0.0973
same,combination Emax,[2],0.0719
same,combination Emax,[3],0.101
same,combination Emax,COLO-792 (Melanoma),0.27
same,combination Emax,A204 (Rhabdomyosarcoma),0.0862
same,combination Emax,[4],0.251
same,combination Emax,[5],0.205
same,combination Emax,[6],0.0502
same,combination Emax,[7],0.395
same,combination Emax,[8],0.305
same,combination Emax,[9],0.114
same,combination Emax,[10],0.105
same,combination Emax,[11],0.125
same,combination Emax,[12],0.164
same,combination Emax,[13],0.141
same,combination Emax,AU565 (Breast Carcinoma),0.168
same,combination Emax,RH-41 (Rhabdomyosarcoma),0.201
same,combination Emax,NB13 (Neuroblastoma),0.152
same,combination Emax,A101D (Melanoma),0.2
"CN(CCO)CC[C@H](CSc1ccccc1)Nc1ccc(S(=O)(=O)NC(=O)c2ccc(N3CCC([C@@H](O)c4ccccc4-c4ccc(Cl)cc4)CC3)cc2)cc1S(=O)(=O)C(F)(F)F [AZD4320] + Nc1ccn([C@@H]2O[C@H](CO)[C@@H](O)C2(F)F)c(=O)n1 [Gemcitabine] (first compound max 1 µM, 7x7, partner max 0.3 µM)",combination Emax,[10],0.635
same,combination Emax,NB13 (Neuroblastoma),0.934
"N#Cc1cnc(Nc2cc(NC[C@H]3CNCCO3)c(C(F)(F)F)cn2)cn1 [SRA737] + Nc1ccn([C@@H]2O[C@H](CO)[C@@H](O)C2(F)F)c(=O)n1 [Gemcitabine] (first compound max 10 µM, 7x7, partner max 0.3 µM)",combination Emax,[10],0.592
"CN(CCO)CC[C@H](CSc1ccccc1)Nc1ccc(S(=O)(=O)NC(=O)c2ccc(N3CCC([C@@H](O)c4ccccc4-c4ccc(Cl)cc4)CC3)cc2)cc1S(=O)(=O)C(F)(F)F [AZD4320] + CC(=O)O[C@H]1C(=O)[C@@]2(C)[C@H]([C@H](OC(=O)c3ccccc3)[C@]3(O)C[C@H](OC(=O)[C@H](O)[C@@H](NC(=O)c4ccccc4)c4ccccc4)C(C)=C1C3(C)C)[C@]1(OC(C)=O)CO[C@@H]1C[C@@H]2O [Paclitaxel] (first compound max 1 µM, 7x7, partner max 3 µM)",combination Emax,[10],0.566
"C[C@@H](c1ccc2nccn2c1)n1nnc2ncc(-c3cnn(C)c3)nc21 [Savolitinib] + Cc1c2c(nn1C)CSCc1cc(n(C)n1)CSc1cc(c3ccccc3c1)OCCCc1c(C(=O)O)n(C)c3c-2c(Cl)ccc13 [AZD5991] (first compound max 1 µM, 7x7, partner max 1 µM)",combination Emax,[1],0.211
same,combination Emax,[2],0.169
same,combination Emax,[3],0.669
same,combination Emax,COLO-792 (Melanoma),0.726
same,combination Emax,A204 (Rhabdomyosarcoma),0.167
same,combination Emax,[4],0.0581
same,combination Emax,[5],0.462
same,combination Emax,[6],0.494
same,combination Emax,[7],0.209
same,combination Emax,[8],0.317
same,combination Emax,[9],0.195
same,combination Emax,[10],0.627
same,combination Emax,[11],0.971
same,combination Emax,[12],0.213
same,combination Emax,[13],0.181
same,combination Emax,AU565 (Breast Carcinoma),1
same,combination Emax,RH-41 (Rhabdomyosarcoma),0.888
same,combination Emax,NB13 (Neuroblastoma),0.22
same,combination Emax,A101D (Melanoma),0.386
"COc1cc2ncnc(Nc3ccc(F)c(Cl)c3)c2cc1OCCCN1CCOCC1 [Gefitinib] + CC(C)n1c(=O)n(C)c2cnc3cc(F)c(-c4ccc(OCCCN5CCCCC5)nc4)cc3c21 [AZD1390] (first compound max 10 µM, 7x7, partner max 0.3 µM)",combination Emax,[1],0.12
same,combination Emax,[2],0.571
same,combination Emax,[3],0.353
same,combination Emax,COLO-792 (Melanoma),0.251
same,combination Emax,A204 (Rhabdomyosarcoma),0.139
same,combination Emax,[4],0.361
same,combination Emax,[5],0.565
same,combination Emax,[6],0.689
same,combination Emax,[7],0.147
same,combination Emax,[8],0.534
same,combination Emax,[9],0.203
same,combination Emax,[10],0.24
same,combination Emax,[11],0.101
same,combination Emax,[12],0.491
same,combination Emax,[13],0.528
same,combination Emax,AU565 (Breast Carcinoma),0.737
same,combination Emax,RH-41 (Rhabdomyosarcoma),0.147
same,combination Emax,NB13 (Neuroblastoma),0.178
same,combination Emax,A101D (Melanoma),0.267
"N#Cc1cnc(Nc2cc(NC[C@H]3CNCCO3)c(C(F)(F)F)cn2)cn1 [SRA737] + O=c1[nH]cc(F)c(=O)[nH]1 [5-Fluorouracil] (first compound max 10 µM, 7x7, partner max 20 µM)",combination Emax,[10],0.323
same,combination Emax,NB13 (Neuroblastoma),0.732
"Cc1nc(Nc2ncc(C(=O)Nc3c(C)cccc3Cl)s2)cc(N2CCN(CCO)CC2)n1 [Dasatinib] + CC(=O)Nc1cccc(-n2c(=O)n(C3CC3)c(=O)c3c(Nc4ccc(I)cc4F)n(C)c(=O)c(C)c32)c1 [Trametinib] (first compound max 2 µM, 7x7, partner max 1 µM)",combination Emax,[1],0.554
same,combination Emax,[2],0.464
same,combination Emax,[3],0.609
same,combination Emax,COLO-792 (Melanoma),0.556
same,combination Emax,A204 (Rhabdomyosarcoma),0.512
same,combination Emax,[4],0.472
same,combination Emax,[5],0.956
same,combination Emax,[6],0.868
same,combination Emax,[7],0.334
same,combination Emax,[8],0.522
same,combination Emax,[9],0.737
same,combination Emax,[11],0.205
same,combination Emax,[12],0.779
same,combination Emax,[13],0.742
same,combination Emax,AU565 (Breast Carcinoma),0.123
same,combination Emax,RH-41 (Rhabdomyosarcoma),0.443
same,combination Emax,NB13 (Neuroblastoma),0.169
same,combination Emax,A101D (Melanoma),0.688
"Cc1cc2ncnn2cc1Nc1ncc2c(n1)n(C1CCOCC1)c(=O)n2C [AZD7648] + COc1cc([C@@H]2c3cc4c(cc3[C@@H](O[C@@H]3O[C@@H]5CO[C@@H](C)O[C@H]5[C@H](O)[C@H]3O)[C@H]3COC(=O)[C@H]23)OCO4)cc(OC)c1O [Etoposide] (first compound max 10 µM, 7x7, partner max 10 µM)",combination Emax,[10],0.528
same,combination Emax,NB13 (Neuroblastoma),0.653
"C[C@@H](c1ccc2nccn2c1)n1nnc2ncc(-c3cnn(C)c3)nc21 [Savolitinib] + CN(CC[C@H](CSC1=CC=CC=C1)NC2=C(C=C(C=C2)S(=O)(=O)NC(=O)C3=CC=C(C=C3)N4CCC(CC4)[C@H](C5=CC=CC=C5C6=CC=C(C=C6)Cl)O)S(=O)(=O)C(F)(F)F)CCO [AZD4320] (first compound max 1 µM, 7x7, partner max 1 µM)",combination Emax,[1],0.2
same,combination Emax,[2],0.127
same,combination Emax,[3],0.138
same,combination Emax,COLO-792 (Melanoma),0.798
same,combination Emax,A204 (Rhabdomyosarcoma),0.0836
same,combination Emax,[4],0.189
same,combination Emax,[5],0.257
same,combination Emax,[6],0.17
same,combination Emax,[7],0.994
same,combination Emax,[8],0.236
same,combination Emax,[9],0.134
same,combination Emax,[11],0.476
same,combination Emax,[12],0.213
same,combination Emax,[13],0.417
same,combination Emax,AU565 (Breast Carcinoma),0.182
same,combination Emax,RH-41 (Rhabdomyosarcoma),0.806
same,combination Emax,A101D (Melanoma),0.409
"N#Cc1cnc(Nc2cc(NC[C@H]3CNCCO3)c(C(F)(F)F)cn2)cn1 [SRA737] + CCc1c2c(nc3ccc(O)cc13)-c1cc3c(c(=O)n1C2)COC(=O)[C@]3(O)CC [SN-38] (first compound max 10 µM, 7x7, partner max 0.3 µM)",combination Emax,[10],0.475
same,combination Emax,NB13 (Neuroblastoma),0.88
"CC(=O)c1c(C)c2cnc(Nc3ccc(N4CCNCC4)cn3)nc2n(C2CCCC2)c1=O [Palbociclib] + CN(CC[C@H](CSC1=CC=CC=C1)NC2=C(C=C(C=C2)S(=O)(=O)NC(=O)C3=CC=C(C=C3)N4CCC(CC4)[C@H](C5=CC=CC=C5C6=CC=C(C=C6)Cl)O)S(=O)(=O)C(F)(F)F)CCO [AZD4320] (first compound max 10 µM, 7x7, partner max 1 µM)",combination Emax,[1],0.421
same,combination Emax,[2],0.0747
same,combination Emax,[3],0.95
same,combination Emax,COLO-792 (Melanoma),0.975
same,combination Emax,A204 (Rhabdomyosarcoma),0.377
same,combination Emax,[4],0.497
same,combination Emax,[5],0.594
same,combination Emax,[6],0.162
same,combination Emax,[7],1
same,combination Emax,[8],0.303
same,combination Emax,[9],0.275
same,combination Emax,[11],0.449
same,combination Emax,[12],0.257
same,combination Emax,[13],0.829
same,combination Emax,AU565 (Breast Carcinoma),0.227
same,combination Emax,RH-41 (Rhabdomyosarcoma),0.883
same,combination Emax,A101D (Melanoma),0.738
"CN(CCO)CC[C@H](CSc1ccccc1)Nc1ccc(S(=O)(=O)NC(=O)c2ccc(N3CCC([C@@H](O)c4ccccc4-c4ccc(Cl)cc4)CC3)cc2)cc1S(=O)(=O)C(F)(F)F [AZD4320] + C=CCn1c(=O)c2cnc(Nc3ccc(N4CCN(C)CC4)cc3)nc2n1-c1cccc(C(C)(C)O)n1 [AZD1775] (first compound max 1 µM, partner max 1 µM)",combination Emax,[1],0.481
same,combination Emax,[2],0.709
same,combination Emax,[3],1
same,combination Emax,COLO-792 (Melanoma),0.944
same,combination Emax,A204 (Rhabdomyosarcoma),0.334
same,combination Emax,[4],0.449
same,combination Emax,[14],0.848
same,combination Emax,[5],0.909
same,combination Emax,[6],0.364
same,combination Emax,[7],0.977
same,combination Emax,[8],0.849
same,combination Emax,[9],0.512
same,combination Emax,[10],0.14
same,combination Emax,[11],0.505
same,combination Emax,[12],0.842
same,combination Emax,[13],0.981
same,combination Emax,AU565 (Breast Carcinoma),0.829
same,combination Emax,RH-41 (Rhabdomyosarcoma),1
same,combination Emax,NB13 (Neuroblastoma),1
"N#Cc1cnc(Nc2cc(NC[C@H]3CNCCO3)c(C(F)(F)F)cn2)cn1 [SRA737] + C=CCn1c(=O)c2cnc(Nc3ccc(N4CCN(C)CC4)cc3)nc2n1-c1cccc(C(C)(C)O)n1 [AZD1775] (first compound max 10 µM, partner max 1 µM)",combination Emax,[10],0.511
same,combination Emax,NB13 (Neuroblastoma),0.853
"COc1nnc2ccc(N3CCC(c4ccc(OCCN5CCN(C)C(=O)[C@H]5C)cc4)CC3)nn12 [AZD5153] + CN(CC[C@H](CSC1=CC=CC=C1)NC2=C(C=C(C=C2)S(=O)(=O)NC(=O)C3=CC=C(C=C3)N4CCC(CC4)[C@H](C5=CC=CC=C5C6=CC=C(C=C6)Cl)O)S(=O)(=O)C(F)(F)F)CCO [AZD4320] (first compound max 1 µM, 7x7, partner max 1 µM)",combination Emax,[1],0.595
same,combination Emax,[2],0.754
same,combination Emax,[3],0.672
same,combination Emax,COLO-792 (Melanoma),0.856
same,combination Emax,A204 (Rhabdomyosarcoma),0.464
same,combination Emax,[4],0.754
same,combination Emax,[5],0.868
same,combination Emax,[6],0.608
same,combination Emax,[7],0.987
same,combination Emax,[8],0.695
same,combination Emax,[9],0.357
same,combination Emax,[11],0.915
same,combination Emax,[12],0.384
same,combination Emax,[13],0.866
same,combination Emax,AU565 (Breast Carcinoma),0.386
same,combination Emax,RH-41 (Rhabdomyosarcoma),1
same,combination Emax,A101D (Melanoma),0.79
